We go through 5 compounds from paper PMC12444563 (ACS Omega, 2025).

“Also recorded” adds a separate entry of the source. Starred links: 1 amine or outer side, 2 acyl side, 3 side chain; linkers in the order of their positions; H or OH if unused. Non-standard residues stand in square brackets, D forms with d. Residues, ends and D or L forms follow the SMILES beside them. *: point of attachment. Paclitaxel(2'-OCO-DMEDA) = CC(=O)O[C@H]1C(=O)[C@@]2(C)[C@H]([C@H](OC(=O)c3ccccc3)[C@]3(O)C[C@H](OC(=O)[C@H](OC(=O)N(C)CCN(C)*)[C@@H](NC(=O)c4ccccc4)c4ccccc4)C(C)=C1C3(C)C)[C@]1(OC(C)=O)CO[C@@H]1C[C@@H]2O; Dolaproine = CO[C@@H]([C@@H]1CCCN1)[C@@H](C)C(=O)O; Dil = CC[C@H](C)[C@H](NC)[C@@H](CC(=O)O)OC; Fmoc = O=C(OCC1c2ccccc2-c2ccccc21)*; PABC = O=C(OCc1ccc(N[*:1])cc1)[*:2]; X1 = C[C@@H](N*)[C@@H](O)c1ccccc1; NMeV = CN[C@H](C(=O)O)C(C)C

The subject of one series is U87MG cancer cell lines. Also on record: method as in PMID 37492088. Particulars: short-contact time antiproliferative assay; earlier work of the authors; read-out: IC50 against U87MG cancer cell lines; cited from earlier work.
The nature of series [1]: human plasma (Pooled; Innovative Research). The settings on record: 37 °C, up to 4 hours.
Series [2] can be described thus: human liver S9 fraction (male, pooled, Xeno-tech). Particulars: 37 °C, up to 90 minutes.
Series [3] can be described thus: rat plasma (Strain: Sprague Dawley; Innovative Research). Particulars: 37 °C, up to 4 hours.
The subject of series [4] is bovine spleen Cathepsin B (SigmaAldrich C6286, ≥10 units/mg protein). Kind of series: activated Cathepsin B (1.12 u/mL) in 20 mM NaOAc, 1 mM EDTA, pH 5.4, with L-cysteine. The settings on record: 37 °C, up to 24 h.
The nature of series [5]: rat liver S9 fraction (male, pooled, Xeno-tech). The settings on record: 37 °C, up to 90 minutes.
For series [6], the system named is Cathepsin B (SigmaAldrich C6286). Kind of series: bovine spleen Cathepsin B in 20 mM NaOAc, 1 mM EDTA, pH 5.4, activated with L-cysteine. Particulars: 37 °C, up to 24 h.

On to `CC[C@H](C)[C@@H]([C@@H](CC(=O)N1CCC[C@H]1[C@H](OC)[C@@H](C)C(=O)N[C@H](C)[C@@H](O)c1ccccc1)OC)N(C)C(=O)[C@@H](NC(=O)[C@@H](NC)C(C)C)C(C)C` [MMAE, monomethyl auristatin E] (H-[NMeV]V[Dil][Dolaproine]-X1), for which the IC50 with U87MG cancer cell lines was 2130 nM.
Regarding “Fmoc-GFLG-PABC-diamine-PTX (Fmoc-GFLG[PABC]-{Paclitaxel(2'-OCO-DMEDA)}; SMILES CC(=O)O[C@H]1C(=O)[C@@]2(C)[C@H]([C@H](OC(=O)c3ccccc3)[C@]3(O)C[C@H](OC(=O)[C@H](OC(=O)N(C)CCN(C)C(=O)OCc4ccc(NC(=O)CNC(=O)[C@H](CC(C)C)NC(=O)[C@H](Cc5ccccc5)NC(=O)CNC(=O)OCC5c6ccccc6-c6ccccc65)cc4)[C@@H](NC(=O)c4ccccc4)c4ccccc4)C(C)=C1C3(C)C)[C@]1(OC(C)=O)CO[C@@H]1C[C@@H]2O)”, the not cleaved was determined as 93.9% remaining at 240 min in series [1], 95.232% remaining at 90 min in series [2] and 103.3% remaining at 240 min in series [3]. In addition, in series [4], the cleaved bond result was “Gly-Phe, 2 min; also recorded: Gly-PABC”. In series [4], the fragment found entry is “diamine-PTX (fragment II)”.
Consider Fmoc-GPLG-PABC-diamine-PTX, for which the not cleaved was 100% of residual compound after 4 h (Table S7: 112.1% at 240 min) in series [1]; “more than 94% intact after 1.5 h (Table S7: 94.464% at 90 min)” in series [5]; “more than 94% intact after 1.5 h (Table S7: 94.986% at 90 min)” in series [2]; 100% of residual compound after 4 h (Table S7: 103.0% at 240 min) in series [3]; “no cleavage between Gly and Pro residues was observed throughout the experiment time” in series [4]. Moreover, in series [4], the cleaved bond result is “Gly-PABC, first_seen, 2 min”. Besides, in series [4], the fragment found result is “diamine-PTX (fragment II), 2 min; also recorded: free PTX, 24 h”.
Consider Fmoc-VA-PABC-diamine-PTX, for which the not cleaved in series [1] worked out at 107.1% remaining at 240 min; in series [3], 108.0% remaining at 240 min. Besides, the fragment found entry in series [6] was “PABC-diamine-PTX (fragment I)”; in series [4], “PABC-diamine-PTX (fragment I); also recorded: diamine-PTX (fragment II)”.
Regarding Fmoc-VCit-PABC-diamine-PTX, the not cleaved in series [3] is reported as 118.1% remaining at 240 min. Also, the fragment found result in series [6] is “PABC-diamine-PTX (fragment I)”; in series [4] it was “PABC-diamine-PTX (fragment I); also recorded: diamine-PTX (fragment II)”.

One may read the IC50 as the midpoint of a concentration-inhibition curve.
